Patent publication US20170290806A1, “PCSK9 Inhibitors and Methods of Use Thereof” (Temple University-Of The Commonwealth System of Higher …, priority 2014, published 2017)
“Also recorded” adds a separate entry of the source.

Tests used:
[1] = molecular target: T1, PCSK9/LDLR interaction (Homo sapiens, UniProt Q8NBP7); test: Recombinant cell based assay: LDLR upregulation in HEK293 cells transfected with LDLR and PCSK9; set-up: the human full-length PCSK9 was cloned; expressed in transfected cells; host or cells: HEK-293T; details: for increase in the LDLR (intracellular recombinant LDLR upregulation) as comparable to control / EC50: HEK293 cells transfected with LDLR and PCSK9; for increase in the LDLR (intracellular recombinant LDLR upregulation) as comparable to control: compounds 1-50 μM; for EC50: compounds 1-50 uM, 43 hours incubation, read-out: EC50 of LDLR up-regulation; for IC50s (increase in the LDLR): PCSK9/LDLR HEK293 recombinant cell based assay
Procedure: (§1) HEK-293T cells were seeded into 96 well plates in a DMEM containing 10% Fetal Bovine Serum media and incubated overnight at 37° C. Cells were transiently transfected with LDLR and PCSK9 cDNA constructs using the Lipofectamine-LTX. Compounds (1-50 uM) were added, followed by additional 43 hours of incubation. The cells were lysed and analyzed for LDLR expression and cell viability determined as described in FIG. 7.
as §1, with “8. […] Compound SBC-130,022 has no effect in up-regulating LDLR.” for “7.”
(§2) Considering the difficulty in assaying the LDLR/PCSK9 binding, the approach was to develop and implement an innovative recombinant cell based assay where the full-length PCSK9 and the LDLR genes are expressed into HEK-293 cells, and allowed to decrease the LDLR level by PCSK9 (FIG. 7). Compounds that prevent the LDLR degradation without preventing the auto-processing and secretion of the PCSK9 were selected as potential candidates and were further evaluated using additional cell based assay using endogenously expressed LDLR in liver cells (HepG2 cells).
Preparation of constructs: the human full-length PCSK9 was cloned. The cDNA encoding the PCSK9 sequence with and without a FLAG epitope tag (DYKDDDDK) were cloned by PCR and subcloned into mammalian expression vector containing the cytomegalovirus promoter-enhancer (pCMV-PCSK9-FLAG) (pCDNA3.1/PCSK9). For LDLR, the coding sequence was constructed without tag in mammalian expression vector (pCMV-LDLR) (pCDNA3.1/LDLR). The constructs were confirmed by sequence analysis
The pCDNA3.1/PCSK9, and the pCDNA3.1/LDLR constructs were used to transiently transfect mammalian cells. The human embryonic kidney (HEK)-293 cells were seeded (1×10^5 cells/well) in 24-well plates. Expression plasmids ([…]) were transiently transfected into HEK-293 cells with lipofectamine (Invitrogen) according to the manufacturer's protocol. Twenty four to forty eight hours after transfection, cells were harvested. The cells were then be lysed. Both cell lysate and supernatant were subjected to SDS-PAGE and immunoblot analysis using an anti-PCSK9 or LDLR antibody.
240 compounds identified from the virtual screen in a cell based assay for their potential to upregulate the LDLR in the presence of PCSK9 were tested as described above. Initial screening was done using 50 μM of the compounds. Each compound was added to the cell media in triplicates, and intrecellar LDLR was detected as described above. Each set of compounds were screened at least twice with all appropriate controls. Compounds that upregulate the LDLR were selected for further evaluation.
From the initial screening, 24 compounds were identified as potential hits. Hits confirmation was repeated in triplicates using 50 μM.

[2] = molecular target: T1, PCSK9/LDLR interaction; test: LDLR upregulation in HepG2 cells; format: cell-based; set-up: the human full-length PCSK9 was cloned; expressed in transfected cells; details: for up-regulation of endogenously expressed LDLR: compounds 1-50 uM; for EC50: endogenously expressed LDLR, transfected with PCSK9, compounds 1-50 uM, 43 hours, read-out: EC50 of up-regulation of LDLR
Procedure: as §1, with “HepG2” for “HEK-293T”, “MEM” for “DMEM”, “with” for “with LDLR and”, “8.” for “7.”
as §2
The compounds SBC-110,424, SBC-110, 433, and SBC-115,076 were also validated for their ability to up-regulate the endogenously expressed LDLR in HepG2 cells.

T1 sequence (Q8NBP7 153-692): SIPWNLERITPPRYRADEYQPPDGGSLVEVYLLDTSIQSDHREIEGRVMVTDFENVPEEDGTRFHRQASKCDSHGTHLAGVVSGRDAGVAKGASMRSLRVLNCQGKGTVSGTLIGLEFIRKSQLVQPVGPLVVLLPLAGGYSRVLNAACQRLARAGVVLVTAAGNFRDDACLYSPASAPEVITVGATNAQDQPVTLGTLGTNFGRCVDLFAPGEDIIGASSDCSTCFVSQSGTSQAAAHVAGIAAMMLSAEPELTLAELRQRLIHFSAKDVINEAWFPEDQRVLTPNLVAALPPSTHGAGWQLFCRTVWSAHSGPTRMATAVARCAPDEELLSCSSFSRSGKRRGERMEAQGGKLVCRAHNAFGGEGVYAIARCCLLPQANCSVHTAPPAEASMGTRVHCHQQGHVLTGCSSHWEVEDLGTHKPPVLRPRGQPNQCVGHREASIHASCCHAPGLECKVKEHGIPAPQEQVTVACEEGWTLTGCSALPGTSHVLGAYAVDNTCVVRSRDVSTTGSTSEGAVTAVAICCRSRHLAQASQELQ
T1 sequence (Q8NBP7 31-152 partner limits assumed): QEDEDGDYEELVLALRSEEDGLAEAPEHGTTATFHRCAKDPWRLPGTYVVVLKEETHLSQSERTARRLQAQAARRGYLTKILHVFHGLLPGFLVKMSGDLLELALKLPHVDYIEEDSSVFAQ

Compound	increase in the LDLR (intracellular recombinant LDLR upregulation) as comparable to control [1]	EC50 [1] [µM]	IC50s (increase in the LDLR) [1]	up-regulation of endogenously expressed LDLR [2]	EC50 [2] [nM]
CC(C)(C(=O)NCc1ccco1)n1cc(NC(=O)c2cccnc2)cn1 [SBC-110,424]	concentration dependent increase; also recorded: significant potency	3.5	low uM range	concentration dependent up-regulation	2000
Cc1cc(C(=O)C2=C(O)C(=O)N(CCCN3CCOCC3)C2c2ccncc2)ccc1OCc1ccccc1 (stereo not shown) [SBC-115,076]	concentration dependent increase	3.1	low uM range	concentration dependent up-regulation	430
